This assay deals with BDF1 mice, P388 leukemia ip, median survival T/C. The assay is described as follows: NCI In Vivo Anticancer Drug Screen. Data for tumor model P388 Leukemia (intraperitoneal) in B6D2F1 (BDF1) mice. As to conditions: endpoint: median survival time, higher = longer survival. The method in brief:
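Transplantable tumour in mice; compound vs vehicle dosing; survival scored; ratio of treated to control reported.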

[1] abbreviates: dose: 50.0 mg/kg/injection, schedule: Q01DX009 (ip), vehicle: Klucel (hydroxypropylcellulose) (HPC).
Where [2] appears, read: dose: 50.0 mg/kg/injection, schedule: Q04DX003 (ip), vehicle: saline.
[3] abbreviates: dose: 50.0 mg/kg/injection, schedule: Q01DX009 (ip), vehicle: saline.
The mark [4] stands for this setting: dose: 100.0 mg/kg/injection, schedule: Q01DX009 (ip), vehicle: saline.
Where [5] appears, read: dose: 100.0 mg/kg/injection, schedule: Q04DX003 (ip), vehicle: saline.
Where [6] appears, read: dose: 200.0 mg/kg/injection, schedule: Q01DX009 (ip), vehicle: saline.
Where [7] appears, read: dose: 200.0 mg/kg/injection, schedule: Q04DX003 (ip), vehicle: saline.
Where [8] appears, read: dose: 100.0 mg/kg/injection, schedule: Q01DX009 (ip), vehicle: Klucel (hydroxypropylcellulose) (HPC).
[9] abbreviates: dose: 25.0 mg/kg/injection, schedule: Q01DX009 (ip), vehicle: water.
[10] abbreviates: dose: 50.0 mg/kg/injection, schedule: Q01DX009 (ip), vehicle: water.
[11] abbreviates: dose: 50.0 mg/kg/injection, schedule: Q04DX003 (ip), vehicle: water.
Where [12] appears, read: dose: 100.0 mg/kg/injection, schedule: Q01DX009 (ip), vehicle: water.
The mark [13] stands for this setting: dose: 100.0 mg/kg/injection, schedule: Q04DX003 (ip), vehicle: water.
Setting [14] is: dose: 400.0 mg/kg/injection, schedule: Q04DX003 (ip), vehicle: water.

Among the data in PubChem BioAssay AID328 (DTP/NCI, 2004) are T/C values, retold here.

Several values for one entry are separate records, joined by “and”; a condition that tells them apart may be missing. Equal values may be shown once. Inconclusive results and toxic doses are left out.

As for `O=C(CCl)Nc1cc(Cl)ccc1N1CCCC1`, the T/C was 118 % of control (dose: 12.5 mg/kg/injection, schedule: Q01DX001 (ip), vehicle: Klucel (hydroxypropylcellulose) (HPC)); 90 % of control (dose: 12.5 mg/kg/injection, schedule: Q04DX003 (ip), vehicle: Klucel (hydroxypropylcellulose) (HPC)); 104 % of control (dose: 25.0 mg/kg/injection, schedule: Q01DX001 (ip), vehicle: Klucel (hydroxypropylcellulose) (HPC)); 95 % of control (dose: 25.0 mg/kg/injection, schedule: Q01DX009 (ip), vehicle: Klucel (hydroxypropylcellulose) (HPC)); 104 % of control (dose: 25.0 mg/kg/injection, schedule: Q04DX003 (ip), vehicle: Klucel (hydroxypropylcellulose) (HPC)); 104 % of control (dose: 50.0 mg/kg/injection, schedule: Q01DX001 (ip), vehicle: Klucel (hydroxypropylcellulose) (HPC)). Moreover, the T/C is 90 % of control under setting [1]; 104 % of control (dose: 50.0 mg/kg/injection, schedule: Q04DX003 (ip), vehicle: Klucel (hydroxypropylcellulose) (HPC)); 95 % of control (dose: 75.0 mg/kg/injection, schedule: Q01DX001 (ip), vehicle: Klucel (hydroxypropylcellulose) (HPC)); 95 % of control (dose: 115.0 mg/kg/injection, schedule: Q01DX001 (ip), vehicle: Klucel (hydroxypropylcellulose) (HPC)).
For `C[N+]1(C)N=C([O-])N(c2ccccc2[N+](=O)[O-])C1=O`, the T/C (dose: 50.0 mg/kg/injection, schedule: Q01DX009 (ip), vehicle: saline with Tween-80) is 88 % of control.
As for `CC1(C)N=C(N)N=C(N)N1c1ccc(CNC(=O)Nc2cccc(S(=O)(=O)F)c2)cc1`, the T/C was 104 % of control (dose: 35.0 mg/kg/injection, schedule: Q04DX003 (ip), vehicle: saline); 150 % of control under setting [2]; 163 % of control (dose: 75.0 mg/kg/injection, schedule: Q04DX003 (ip), vehicle: saline); 200 % of control (dose: 99.0 mg/kg/injection, schedule: Q04DX003 (ip), vehicle: saline); 159 % of control and 195 % of control and 215 % of control (dose: 150.0 mg/kg/injection, schedule: Q04DX003 (ip), vehicle: saline); 225 % of control and 163 % of control (dose: 225.0 mg/kg/injection, schedule: Q04DX003 (ip), vehicle: saline). In addition, the T/C (dose: 300.0 mg/kg/injection, schedule: Q04DX003 (ip), vehicle: saline) was 177 % of control.
Regarding `O=C(Nc1ccc(C2=NCCN2)cc1)C1CCC(C(=O)Nc2ccc(C3=NCCN3)cc2)CC1` (configuration not stated), the T/C (dose: 100.0 mg/kg/injection, schedule: Q04DX003 (ip), vehicle: saline with Tween-80) is 150 % of control; the T/C (dose: 200.0 mg/kg/injection, schedule: Q04DX003 (ip), vehicle: saline with Tween-80) is 179 % of control; the T/C (dose: 264.0 mg/kg/injection, schedule: Q04DX003 (ip), vehicle: saline with Tween-80) is 228 % of control and 200 % of control; the T/C (dose: 400.0 mg/kg/injection, schedule: Q04DX003 (ip), vehicle: saline with Tween-80) is 225 % of control and 229 % of control and 240 % of control; the T/C (dose: 600.0 mg/kg/injection, schedule: Q04DX003 (ip), vehicle: saline with Tween-80) is 240 % of control and 245 % of control.
As for `CCOC(=O)/C(C)=C\c1c(C)[nH]c(=O)[nH]c1=O`, the T/C by setting is: under setting [3], 102 % of control; under setting [2], 104 % of control; under setting [4], 103 % of control; under setting [5], 100 % of control; under setting [6], 99 % of control; under setting [7], 95 % of control and 100 % of control. In addition, the T/C runs as follows: (dose: 400.0 mg/kg/injection, schedule: Q01DX009 (ip), vehicle: saline) 96 % of control; (dose: 400.0 mg/kg/injection, schedule: Q04DX003 (ip), vehicle: saline) 91 % of control and 95 % of control.
`Nc1ccc(C(=O)O)cc1S(=O)(=O)c1cc(C(=O)O)ccc1N`: the T/C reads like this: under setting [1], 88 % of control; under setting [8], 91 % of control.
Consider `COc1cc2c[n+](C)c3c4cc(OC)c(OC)cc4ccc3c2cc1OC`, for which the T/C (dose: 3.12 mg/kg/injection, schedule: Q01DX009 (ip), vehicle: water) was 98 % of control; the T/C (dose: 6.25 mg/kg/injection, schedule: Q01DX009 (ip), vehicle: water) was 112 % of control; the T/C (dose: 12.5 mg/kg/injection, schedule: Q01DX009 (ip), vehicle: water) was 118 % of control; the T/C (dose: 25.0 mg/kg/injection, schedule: Q01DX009 (ip), vehicle: other) was 153 % of control; the T/C under setting [9] was 120 % of control; the T/C (dose: 34.0 mg/kg/injection, schedule: Q01DX009 (ip), vehicle: saline) was 159 % of control. The T/C runs as follows: (dose: 50.0 mg/kg/injection, schedule: Q01DX009 (ip), vehicle: other) 174 % of control; under setting [3], 188 % of control; under setting [10], 100 % of control; under setting [11], 103 % of control; (dose: 52.0 mg/kg/injection, schedule: Q01DX009 (ip), vehicle: saline) 150 % of control; (dose: 80.0 mg/kg/injection, schedule: Q01DX009 (ip), vehicle: saline) 165 % of control and 172 % of control. Also, the T/C under setting [8] is 151 % of control; the T/C (dose: 100.0 mg/kg/injection, schedule: Q01DX009 (ip), vehicle: other) was 172 % of control; the T/C under setting [4] is 200 % of control; the T/C under setting [12] was 106 % of control; the T/C under setting [5] was 113 % of control; the T/C under setting [13] is 120 % of control. Further, the T/C was 155 % of control and 168 % of control (dose: 120.0 mg/kg/injection, schedule: Q01DX009 (ip), vehicle: saline); 159 % of control (dose: 180.0 mg/kg/injection, schedule: Q01DX009 (ip), vehicle: saline); 183 % of control under setting [6]; 95 % of control under setting [7]; 90 % of control (dose: 240.0 mg/kg/injection, schedule: Q01DX009 (ip), vehicle: saline); 150 % of control (dose: 240.0 mg/kg/injection, schedule: Q04DX003 (ip), vehicle: saline). In addition, the T/C by setting is: under setting [14], 92 % of control; (dose: 600.0 mg/kg/injection, schedule: Q04DX003 (ip), vehicle: saline) 100 % of control.
As to `O=C(c1ccccc1)C1CC1c1ccccc1` (configuration not stated), the T/C is 120 % of control (dose: 100.0 mg/kg/injection, schedule: Q01DX001 (ip), vehicle: Klucel (hydroxypropylcellulose) (HPC)); 104 % of control (dose: 200.0 mg/kg/injection, schedule: Q01DX001 (ip), vehicle: Klucel (hydroxypropylcellulose) (HPC)); 100 % of control (dose: 400.0 mg/kg/injection, schedule: Q01DX001 (ip), vehicle: Klucel (hydroxypropylcellulose) (HPC)).
With `O=[N+]([O-])c1ccccc1CN1c2ccccc2N=C2c3ccccc3CC21` (configuration not stated), the T/C reads like this: (dose: 100.0 mg/kg/injection, schedule: Q04DX003 (ip), vehicle: saline sonified) 116 % of control; (dose: 200.0 mg/kg/injection, schedule: Q04DX003 (ip), vehicle: saline sonified) 100 % of control; (dose: 400.0 mg/kg/injection, schedule: Q04DX003 (ip), vehicle: saline sonified) 91 % of control.
Regarding `O=[N+]([O-])c1cc([N+](=O)[O-])c2ccc(S(=O)(=O)O)cc2c1O`, the T/C runs as follows: (dose: 6.25 mg/kg/injection, schedule: Q04DX002 (ip), vehicle: saline) 106 % of control; (dose: 12.5 mg/kg/injection, schedule: Q04DX002 (ip), vehicle: saline) 101 % of control; (dose: 25.0 mg/kg/injection, schedule: Q04DX002 (ip), vehicle: saline) 105 % of control.
Regarding `O=c1cc(N=Nc2ccc(O)cc2)[nH]c(=O)[nH]1`, the T/C was 100 % of control under setting [9]; 106 % of control under setting [10]; 104 % of control and 107 % of control under setting [11]; 106 % of control under setting [12]; 93 % of control and 98 % of control under setting [13]; 114 % of control (dose: 200.0 mg/kg/injection, schedule: Q01DX009 (ip), vehicle: water). Also, the T/C was 98 % of control and 102 % of control and 117 % of control (dose: 200.0 mg/kg/injection, schedule: Q04DX003 (ip), vehicle: water); 100 % of control (dose: 400.0 mg/kg/injection, schedule: Q01DX009 (ip), vehicle: water); 109 % of control and 111 % of control and 117 % of control under setting [14].
